Entries after “also recorded” stand apart in the source; their conditions may differ.
Columns and labels:
trigeminal neurons [1] = assay: Fluo-3 calcium imaging of cultured mouse trigeminal neurons; conditions: 1 μM PGE2 + modulator: SC-51089 10 μM, U73122 3 μM, U73343 3 μM, BIM 1 μM, chelerythrine 1 μM, H-89 10 μM
trigeminal neurons [2] = assay: Whole-cell voltage-clamp recording of cultured trigeminal neurons; assay type: cell-based, mouse; conditions: 1 mM acetaldehyde, co-application of 20 μM GdCl3 and 2 mM camphor
Procedure: Trigeminal ganglia were dissected out of decapitated adult ICR mice in cold PBS and treated with 1.5 mg/Ml of collagenase/dispase (Roche Diagnostics, USA) at 37 °C for 45 min, and then treated with 0.25% trypsin (Invitrogen, USA) for 15 min. The trigeminal neurons prepared thereby were then plated onto poly-L-lysine-coated coverslips in DMEM/F12 containing 10% FBS, 1% penicillin/streptomycin and 5 ng/Ml of 2.5S NGF (Invitrogen, USA), nerve growth factor (Invitrogen), followed by culture in a CO2 incubator for 48-72 hours.
Particularly, the extracellular solution (140 mM NaCl, 5 mM KCl, 2 mM CaCl2, 1 mM MgCl2, 10 mM HEPES; titrated to pH 7.4 with NaOH) and the pipette solution (140 mM CsCl, 5 mM EGTA, 10 mM HEPES, 2.0 mM MgATP, 0.2 mM NaGTP; titrated to pH 7.2 with CsOH) were used. The potential was holded at −60 mV for 250 ms, voltage-ramp pulsed from −80 mV to +80 mV for […] and returned to −60 mV for 250 ms, which was repeated without intersweep. This experiment was repeated 5 times.
The trigeminal neurons prepared by the same manner as described in Example 2 were delayed-treated with 1 mM acetaldehyde, followed by treatment of 20 μM GdCl3 (a TRPA1 blocker gadolinium; Sigma-Aldrich, USA) and 2 mM camphor. Then, whole-cell voltage-clamp recording was performed by the same manner as described in Example <5-2>.

ICR mice = assay: Acute hindpaw licking/flicking behavioral analysis; conditions: for suppression of cinnamaldehyde-evoked licking/flicking behaviors: 10 mM cinnamaldehyde, 100 μM or 1 mM GdCl3, intradermal; for suppression of cinnamaldehyde-evoked licking/flicking behaviors / suppression of acetaldehyde-evoked licking/flicking behaviors: 10 mM camphor; for suppression of acetaldehyde-evoked licking/flicking behaviors: 100 mM acetaldehyde, 1 mM ruthenium red, 100 μM or 1 mM GdCl3 injected 5 min prior
Procedure: This analysis was performed in accordance with protocols approved by the University Committee on Laboratory Animals. Mice were acclimated for 1 h to the test environment prior to experiments. Drugs dissolved in vehicle (PBS containing 0.5% Tween 80) were injected into mice right hindpaws intradermally.

mTRPA1 = molecular target: T1, mTRPA1 (Mus musculus, UniProt Q8BLA8); assay: Fluo-3 calcium imaging of mTRPA1-transfected HEK293T cells; assay type: cell-based; conditions: 1 mM acetaldehyde + 2 mM camphor or 10 μM ruthenium red, n=21
T1 construct: expressed in transfected cells; host or cells: HEK293T (ATCC CRL-11268), pcDNA5/FRT
Procedure: (§1) Particularly, the HEK293T cell line was transiently transfected with individual TRP channel plasmid (pcDNA3.1 containing polynucleotide encoding hTRPA1, rTRPV2, rTRPV1 or mTRPV4; pcDNA5/FRT containing polynucleotide encoding mTRPA1, hTRPV3 or mTRPM8) 3 μg per 35-mm dish and 600 ng/well of pcDNA3 (Invitrogen Corp., USA; containing green fluorescent protein (GFP) cDNA) using Fugene6 (Roche Diagnostics, USA) according to manufacturer's instruction. The transformed cells were cultured in DMEM/F12 containing 10% FBS and 1% penicillin/streptomycin in a CO2 incubator for 24 hours. The cells were replated onto poly-L-lysine-coated glass coverslips, followed by further culture for 10-24 hours.
(§2) Calcium imaging was performed with a confocal microscope (LSM5 Pascal, Carl Zeiss, Germany), and time-lapse images (488 nm excitation/514 nm emission) were collected every 3 seconds using Carl Zeiss ratio tool software (Carl Zeiss, Germany).
(§3) Stock solutions were made using water or ethanol, and were diluted with test solutions before use.

hTRPA1 = molecular target: T2, hTRPA1 (Homo sapiens, UniProt O75762); assay: Fluo-3 calcium imaging of hTRPA1-transfected HEK293T cells; assay type: cell-based; conditions: for suppression of acetaldehyde-evoked intracellular calcium influx (hTRPA1): 1 mM acetaldehyde + 2 mM camphor or 10 μM ruthenium red, n=12; for elevation of intracellular calcium levels in hTRPA1-expressing cells: 1 mM acetaldehyde, 300 μM cinnamaldehyde, 10 mM acetic acid, 1% methanol, 1% ethanol
T2 construct: expressed in transfected cells; host or cells: HEK293T (ATCC CRL-11268), pcDNA3.1
Procedure: as §1, §3, §2, §3

TRPA1 = assay: Whole-cell voltage-clamp recording of TRPA1 transfected cell line; assay type: cell-based
Procedure: as §1, §3
This experiment was repeated 5 times.

T2 sequence (O75762 whole entry): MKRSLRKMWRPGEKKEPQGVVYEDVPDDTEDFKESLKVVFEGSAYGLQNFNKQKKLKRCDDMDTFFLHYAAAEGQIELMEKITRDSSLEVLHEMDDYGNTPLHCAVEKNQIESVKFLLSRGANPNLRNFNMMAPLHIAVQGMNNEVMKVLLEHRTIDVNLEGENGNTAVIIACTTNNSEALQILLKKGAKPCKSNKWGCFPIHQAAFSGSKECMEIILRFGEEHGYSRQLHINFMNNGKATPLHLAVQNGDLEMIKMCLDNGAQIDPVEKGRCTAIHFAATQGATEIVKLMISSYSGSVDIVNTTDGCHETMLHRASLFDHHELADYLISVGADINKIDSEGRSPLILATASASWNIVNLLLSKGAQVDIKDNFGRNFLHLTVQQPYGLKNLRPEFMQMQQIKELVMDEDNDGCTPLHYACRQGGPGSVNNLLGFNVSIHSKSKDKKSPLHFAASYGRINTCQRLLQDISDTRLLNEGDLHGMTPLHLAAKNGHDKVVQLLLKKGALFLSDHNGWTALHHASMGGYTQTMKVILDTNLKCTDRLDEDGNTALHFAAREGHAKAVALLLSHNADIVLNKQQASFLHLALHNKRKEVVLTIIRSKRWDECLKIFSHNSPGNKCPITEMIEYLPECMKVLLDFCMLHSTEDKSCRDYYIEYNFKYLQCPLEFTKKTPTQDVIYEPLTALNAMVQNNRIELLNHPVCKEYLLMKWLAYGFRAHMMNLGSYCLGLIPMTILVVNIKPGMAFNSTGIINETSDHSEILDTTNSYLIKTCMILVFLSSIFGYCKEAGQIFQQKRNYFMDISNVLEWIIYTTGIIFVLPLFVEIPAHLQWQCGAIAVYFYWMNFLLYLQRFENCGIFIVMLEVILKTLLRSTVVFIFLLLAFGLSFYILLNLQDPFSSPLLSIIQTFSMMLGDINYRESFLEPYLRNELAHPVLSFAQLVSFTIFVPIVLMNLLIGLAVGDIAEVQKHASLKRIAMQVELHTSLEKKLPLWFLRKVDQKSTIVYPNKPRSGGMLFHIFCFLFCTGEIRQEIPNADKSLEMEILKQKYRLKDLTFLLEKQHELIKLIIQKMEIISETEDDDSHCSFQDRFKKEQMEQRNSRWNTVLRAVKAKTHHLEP
T1 sequence (Q8BLA8 whole entry): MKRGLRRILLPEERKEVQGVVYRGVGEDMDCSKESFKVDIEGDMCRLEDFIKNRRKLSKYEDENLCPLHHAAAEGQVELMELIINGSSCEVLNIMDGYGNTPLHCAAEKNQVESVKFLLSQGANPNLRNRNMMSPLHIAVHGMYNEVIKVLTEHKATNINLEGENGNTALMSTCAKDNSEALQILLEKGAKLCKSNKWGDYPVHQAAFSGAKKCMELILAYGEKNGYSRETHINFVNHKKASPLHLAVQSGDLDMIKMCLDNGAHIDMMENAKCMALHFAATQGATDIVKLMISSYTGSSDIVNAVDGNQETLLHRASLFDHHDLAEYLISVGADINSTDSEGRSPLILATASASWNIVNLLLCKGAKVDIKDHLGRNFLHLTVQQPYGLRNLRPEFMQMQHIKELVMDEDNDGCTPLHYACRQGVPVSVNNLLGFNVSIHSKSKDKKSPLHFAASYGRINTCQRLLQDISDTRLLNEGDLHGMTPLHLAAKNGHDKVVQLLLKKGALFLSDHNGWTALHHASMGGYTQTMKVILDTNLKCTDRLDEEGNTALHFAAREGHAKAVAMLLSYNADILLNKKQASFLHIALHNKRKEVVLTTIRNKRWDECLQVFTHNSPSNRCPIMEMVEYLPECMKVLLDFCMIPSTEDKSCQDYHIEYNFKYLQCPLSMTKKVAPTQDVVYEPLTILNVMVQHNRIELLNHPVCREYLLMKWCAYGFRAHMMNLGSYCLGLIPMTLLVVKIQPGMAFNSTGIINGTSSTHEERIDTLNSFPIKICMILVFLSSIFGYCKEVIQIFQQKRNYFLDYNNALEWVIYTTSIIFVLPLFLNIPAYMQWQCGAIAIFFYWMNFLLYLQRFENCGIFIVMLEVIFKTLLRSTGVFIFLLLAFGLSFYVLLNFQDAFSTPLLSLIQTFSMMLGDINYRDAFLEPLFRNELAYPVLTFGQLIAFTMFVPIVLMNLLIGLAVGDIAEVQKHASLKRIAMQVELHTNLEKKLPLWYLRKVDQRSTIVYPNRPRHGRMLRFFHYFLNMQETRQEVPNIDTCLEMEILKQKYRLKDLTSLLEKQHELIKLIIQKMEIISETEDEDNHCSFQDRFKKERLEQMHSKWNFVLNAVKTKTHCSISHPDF

Molecule: COc1ccc2c(c[n+](C)c3c4cc5c(cc4ccc23)OCO5)c1OC [chelerythrine]
- suppression of the PGE2-induced potentiation of acetaldehyde responses (trigeminal neurons [1]): significantly suppressed

Molecule: COc1ccc2c(c1)CC[C@@H]1[C@@H]2CC[C@]2(C)[C@@H](NCCCCCCN3C(=O)CCC3=O)CC[C@@H]12 [U73343]
- suppression of the PGE2-induced potentiation of acetaldehyde responses (trigeminal neurons [1]): did not suppress

Molecule: [Cl][Gd]([Cl])[Cl] [GdCl3]
- inhibition of acetaldehyde-evoked current in trigeminal neurons (trigeminal neurons [2]): inhibited
- suppression of nociceptive behaviors at a micromolar dose (ICR mice; 100 μM GdCl3, intradermal): significantly suppress
- suppression of cinnamaldehyde-evoked licking/flicking behaviors (ICR mice): suppressed
- suppression of acetaldehyde-evoked licking/flicking behaviors (ICR mice; intradermal): suppressed

Molecule: N.N.N.N.N.N.N.N.N.N.N.N.N.N.[Cl-].[Cl-].[Cl-].[Cl-].[Cl-].[Cl-].[O-2].[O-2].[Ru+3].[Ru+3].[Ru+4] [ruthenium red]
- suppression of acetaldehyde-evoked intracellular calcium influx (mTRPA1) (mTRPA1): suppressed
- suppression of acetaldehyde-evoked intracellular calcium influx (hTRPA1) (hTRPA1): so did; also recorded: suppressed
- suppression of acetaldehyde-evoked licking/flicking behaviors (ICR mice; intradermal): suppressed

Molecule: O=CC=Cc1ccccc1 [cinnamaldehyde]
- elevation of intracellular calcium levels in hTRPA1-expressing cells (hTRPA1): TRPA1-specific responses; also recorded: responded
- whole-cell current response in TRPA1 expressing cells (TRPA1; 1 mM acetaldehyde, 300 μM cinnamaldehyde, voltage ramp -80 to +80 mV, n=5): responsive
- acute hindpaw licking/flicking behavior elicited (ICR mice; intradermal into hindpaw, 10 μl, 100 mM acetaldehyde or 10 mM cinnamaldehyde, 10 min, n=5): time spent in licking/flicking behaviors increased

Molecule: CC12CCC(CC1=O)C2(C)C (stereo not drawn) [camphor]
- suppression of acetaldehyde-evoked intracellular calcium influx (mTRPA1) (mTRPA1): suppressed
- suppression of acetaldehyde-evoked intracellular calcium influx (hTRPA1) (hTRPA1): completely suppressed
- inhibition of acetaldehyde-evoked current in TRPA1 expressing cells (TRPA1; 1 mM acetaldehyde + 2 mM camphor): inhibited
- inhibition of acetaldehyde-evoked current in trigeminal neurons (trigeminal neurons [2]): inhibited
- suppression of cinnamaldehyde-evoked licking/flicking behaviors (ICR mice): suppressed
- duration of suppressive effect on PGE2-potentiated sensitization (ICR mice; 100 mM acetaldehyde + 1 μM PGE2 + 10 mM camphor): 8 min
- suppression of the effect of co-injection of acetaldehyde and PGE2 (ICR mice; 100 mM acetaldehyde + 1 μM PGE2 + 10 mM camphor, intradermal): suppressed
- suppression of acetaldehyde-evoked licking/flicking behaviors (ICR mice; intradermal): suppressed

Molecule: COc1ccc2c(c1)CC[C@@H]1[C@@H]2CC[C@]2(C)[C@@H](NCCCCCCN3C(=O)C=CC3=O)CC[C@@H]12 [U73122]
- suppression of the PGE2-induced potentiation of acetaldehyde responses (trigeminal neurons [1]): significantly suppressed

Molecule: bisindolmaleimide [BIM]
- suppression of the PGE2-induced potentiation of acetaldehyde responses (trigeminal neurons [1]): significantly suppressed

Molecule: CC(=O)O [acetic acid]
- elevation of intracellular calcium levels in hTRPA1-expressing cells (hTRPA1): failed to elevate intracellular calcium levels

Molecule: CO [methanol]
- elevation of intracellular calcium levels in hTRPA1-expressing cells (hTRPA1): failed to elevate intracellular calcium levels

Molecule: CCO [ethanol]
- elevation of intracellular calcium levels in hTRPA1-expressing cells (hTRPA1): failed to elevate intracellular calcium levels

Molecule: O=S(=O)(NCCNC/C=C/c1ccc(Br)cc1)c1cccc2cnccc12 [H-89]
- suppression of the PGE2-induced potentiation of acetaldehyde responses (trigeminal neurons [1]): did not suppress

Molecule: SC-51089
- suppression of the PGE2-induced potentiation of acetaldehyde responses (trigeminal neurons [1]): significantly suppressed
